This assay deals with HBV. Kind of assay: HBV replication inhibition assay (BDNA assay) in HepG2.2.15 cells. The format is cell-based. As to conditions: HepG2.2.15 cells, read-out: DNA EC50. In outline:
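Supernatant encapsidated HBV DNA was measured by bDNA after DNase digestion and proteinase K release. Stably HBV-integrated HepG2.2.15 cells had two 3-day compound exposures (0.5% DMSO). Signals were background-subtracted and normalized to DMSO wells, and EC50 was obtained by four-parameter fit.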

The mark [1] stands for this setting: Hepatitis B virus, HepG2.2.15, HBV replication assay (BDNA assay).
[2] abbreviates: HBV replication assay (BDNA assay).

Like-named read-outs stand apart in the source and are kept apart here.

As to `C[C@@H]1Cc2nn3c(c2CN1C(=O)Nc1ccc(F)c(C#N)c1)C(=O)N(C)OC(CO)C3` (stereo in doubt) [Compound 084_E1, (4S*,9R)—N-(3-cyano-4-fluorophenyl)-4-(hydroxymethyl)-2,9-dimethyl-1-oxo-1,4,5,8,9,11-hexahydropyrido[4′,3′:3,4]pyrazolo [5,1-d][1,2,5]oxadiazepine-10(2H)-carboxamide], the EC50 (in general, the concentration that produces a half-maximal response) under setting [1] was 0.001 to 0.1 µM.

On to `CN1OC(CO)Cn2nc3c(c2C1=O)CN(C(=O)Nc1cccc(I)c1)CC3` (stereo not drawn) [Compound 020, 4-(hydroxymethyl)-N-(3-iodophenyl)-2-methyl-1-oxo-1,4,5,8,9,11-hexahydropyrido[4′,3′:3,4]pyrazolo[5,1-d][1,2,5]oxadiazepine-10(2H)-carboxamide], for which, under setting [1], the EC50 is 0.001 to 0.1 µM.

As for `CC(=O)NCC1Cn2nc3c(c2C(=O)N(C)O1)CN(C(=O)Nc1ccc(F)c(Br)c1)CC3` (single isomer, unassigned) [Compound 171_E1, (S*)-4-(acetamidomethyl)-N-(3-bromo-4-fluorophenyl)-2-methyl-1-oxo-1,4,5,8,9,11-hexahydropyrido[4′,3′:3,4]pyrazolo[5,1-d][1,2,5]oxadiazepine-10(2H)-carboxamide], the EC50 under setting [1] fell in the range of 0.001 to 0.1 µM.

As to `C[C@@H]1Cc2nn3c(c2CN1C(=O)Nc1ccc(F)c(C#N)c1)C(=O)N(C)OC(CF)C3` (stereo in doubt) [Compound 087_E2, (4R*,9R)—N-(3-cyano-4-fluorophenyl)-4-(fluoromethyl)-2,9-dimethyl-1-oxo-1,4,5,8,9,11-hexahydropyrido[4′,3′:3,4]pyrazolo[5,1-d][1,2,5]oxadiazepine-10(2H)-carboxamide], under setting [2], the EC50 was in the range of 0.001 to 0.1 µM.

With `C[C@@H]1Cc2nn3c(c2CN1C(=O)Nc1ccc(F)c(C#N)c1)C(=O)N(C)OC(CN(C)C)C3` (stereo in doubt) [Compound 096_D1, (4S*,9R)—N-(3-cyano-4-fluorophenyl)-4-((dimethylamino)methyl)-2,9-dimethyl-1-oxo-1,4,5,8,9,11-hexahydropyrido[4′,3′:3,4]pyrazolo[5,1-d][1,2,5]oxadiazepine-10(2H)-carboxamide], the EC50 under setting [2] was 0.1 to 0.5 µM.

For the compound `C[C@@H]1Cc2nn3c(c2CN1C(=O)Nc1ccc(F)c(Cl)c1)C(=O)N(C)OC(CF)C3` (single isomer, unassigned) [Compound 088_E2, (4R*,9R)—N-(3-chloro-4-fluorophenyl)-4-(fluoromethyl)-2,9-dimethyl-1-oxo-1,4,5,8,9,11-hexahydropyrido[4′,3′:3,4]pyrazolo[5,1-d][1,2,5]oxadiazepine-10(2H)-carboxamide], the EC50 under setting [2] lay in the range of 0.001 to 0.1 µM.

Consider `C=CCN1CCn2nc3c(c2C(=O)N1C)CN(C(=O)Nc1ccc(F)c(C#N)c1)[C@H](C)C3` [Compound 218, (R)-3-allyl-N-(3-cyano-4-fluorophenyl)-2,9-dimethyl-1-oxo-1,2,3,4,5,8,9,11-octahydro-10H-pyrido[4′,3′:3,4]pyrazolo[5,1-d][1,2,5]triazepine-10-carboxamide], for which the EC50 under setting [1] fell in the range of 0.001 to 0.1 µM.

For `CN1OC(CO)Cn2nc3c(c2C1=O)CN(C(=O)Nc1ccc(Cl)c(Cl)c1F)CC3` (stereo not drawn) [Compound 024, N-(3,4-dichloro-2-fluorophenyl)-4-(hydroxymethyl)-2-methyl-1-oxo-1,4,5,8,9,11-hexahydropyrido[4′,3′:3,4]pyrazolo[5,1-d][1,2,5]oxadiazepine-10(2H)-carboxamide], the EC50 under setting [1] lay within 0.001 to 0.1 µM.

Consider `CCS(=O)(=O)NCC1Cn2nc3c(c2C(=O)N(C)O1)CN(C(=O)Nc1ccc(F)c(Cl)c1)CC3` (stereo not drawn) [Compound 208, N-(3-chloro-4-fluorophenyl)-4-(ethylsulfonamidomethyl)-2-methyl-1-oxo-1,4,5,8,9,11-hexahydropyrido[4′,3′:3,4]pyrazolo[5,1-d][1,2,5]oxadiazepine-10(2H)-carboxamide], for which the EC50 under setting [1] lay within 0.001 to 0.1 µM.

Consider `CN1OC(CO)Cn2nc3c(c2C1=O)CN(C(=O)Nc1cc(Cl)c(F)cc1F)CC3` (stereo not drawn) [Compound 013, N-(5-chloro-2,4-difluorophenyl)-4-(hydroxymethyl)-2-methyl-1-oxo-1,4,5,8,9,11-hexahydropyrido[4′,3′:3,4]pyrazolo[5,1-d][1,2,5]oxadiazepine-10(2H)-carboxamide], for which the EC50 under setting [1] was 0.001 to 0.1 µM.

For `CNC(=O)C1Cn2nc3c(c2C(=O)N(C)O1)CN(C(=O)Nc1ccc(F)c(Cl)c1F)CC3` (stereo not drawn) [Compound 118, N10-(3-chloro-2,4-difluorophenyl)-N4,2-dimethyl-1-oxo-1,4,5,8,9,11-hexahydropyrido[4′,3′:3,4]pyrazolo[5,1-d][1,2,5]oxadiazepine-4,10(2H)-dicarboxamide], the EC50 under setting [1] is 0.001 to 0.1 µM.

As to `CN1OCCn2nc3c(c2C1=O)CN(C(=O)Nc1ccc(F)c(Cl)c1)CC3` [Compound 066, N-(3-chloro-4-fluoro-phenyl)-2-methyl-1-oxo-5,8,9,11-tetrahydro-4H-pyrido[2,3]pyrazolo[2,4-c][1,2,5]oxadiazepine-10-carboxamide], the EC50 under setting [1] fell in the range of 0.001 to 0.1 µM.

Turning to `CN1OC(CO)Cn2nc3c(c2C1=O)CN(C(=O)Nc1c(F)ccc(Cl)c1F)CC3` (single isomer, unassigned) [Compound 138_E1, (S*)—N-(3-chloro-2,6-difluorophenyl)-4-(hydroxymethyl)-2-methyl-1-oxo-1,4,5,8,9,11-hexahydropyrido[4′,3′:3,4]pyrazolo[5,1-d][1,2,5]oxadiazepine-10(2H)-carboxamide], under setting [1], the EC50 lay within 0.1 to 0.5 µM.

Regarding `CN1OC(COC(=O)OC(C)(C)C)Cn2nc3c(c2C1=O)CN(C(=O)Nc1ccc(F)c(Cl)c1)CC3` (stereo not drawn) [Compound 054, tert-butyl ((10-((3-chloro-4-fluorophenyl)carbamoyl)-2-methyl-1-oxo-1,2,4,5,8,9,10,11-octahydropyrido[4′,3′:3,4]pyrazolo[5,1-d][1,2,5]oxadiazepin-4-yl)methyl) carbonate], the EC50 under setting [1] was 0.001 to 0.1 µM.

In the case of `C[C@@H]1Cc2nn3c(c2CN1C(=O)Nc1ccc(F)c(Br)c1)C(=O)N(C)OCC3` [Compound 077, (R)—N-(3-bromo-4-fluorophenyl)-2,9-dimethyl-1-oxo-1,4,5,8,9,11-hexahydropyrido[4′,3′:3,4]pyrazolo[5,1-d][1,2,5]oxadiazepine-10(2H)-carboxamide], the EC50 under setting [1] is 0.001 to 0.1 µM.

As for `C[C@@H]1Cc2nn3c(c2CN1C(=O)Nc1ccc(F)c(Cl)c1)C(=O)N(C)OC(COCC(F)F)C3` (stereo in doubt) [Compound 121_D2, (4R*,9R)—N-(3-chloro-4-fluorophenyl)-4-((2,2-difluoroethoxy)methyl)-2,9-dimethyl-1-oxo-1,4,5,8,9,11-hexahydropyrido[4′,3′:3,4]pyrazolo[5,1-d][1,2,5]oxadiazepine-10(2H)-carboxamide], the EC50 under setting [1] fell in the range of 0.001 to 0.1 µM.

For the compound `CN(C)CC1Cn2nc3c(c2C(=O)N(C)O1)CN(C(=O)Nc1ccc(F)c(Cl)c1)CC3` (stereo not drawn) [Compound 058, N-(3-chloro-4-fluoro-phenyl)-4-[(dimethylamino)methyl]-2-methyl-1-oxo-5,8,9,11-tetrahydro-4H-pyrido[2,3]pyrazolo[2,4-d][1,2,5]oxadiazepine-10-carboxamide], under setting [1], the EC50 lay within 0.001 to 0.1 µM.

As for `CC(=O)NCC1Cn2nc3c(c2C(=O)N(C)O1)CN(C(=O)Nc1cc(Cl)c(F)cc1F)CC3` (single isomer, unassigned) [Compound 173_E1, (S*)-4-(acetamidomethyl)-N-(5-chloro-2,4-difluorophenyl)-2-methyl-1-oxo-1,4,5,8,9,11-hexahydropyrido[4′,3′:3,4]pyrazolo[5,1-d][1,2,5]oxadiazepine-10(2H)-carboxamide], the EC50 under setting [1] is 0.001 to 0.1 µM.

On to `COC(=O)NCC1Cn2nc3c(c2C(=O)N(C)O1)CN(C(=O)Nc1ccc(F)c(Cl)c1)CC3` (stereo not drawn) [Compound 166, methyl((10-((3-chloro-4-fluorophenyl)carbamoyl)-2-methyl-1-oxo-1,2,4,5,8,9,10,11-octahydropyrido[4′,3′:3,4]pyrazolo[5,1-d][1,2,5]oxadiazepin-4-yl)methyl)carbamate], for which the EC50 under setting [1] lay in the range of 0.001 to 0.1 µM.

As for `C[C@@H]1Cc2nn3c(c2CN1C(=O)Nc1cc(C(F)(F)F)ccc1F)C(=O)N(C)O[C@H](CO)C3` (relative stereo) [Compound 157_D1, (4S*,9R)—N-[2-fluoro-5-(trifluoromethyl)phenyl]-4-(hydroxymethyl)-2,9-dimethyl-1-oxo-5,8,9,11-tetrahydro-4H-pyrido[2,3]pyrazolo[2,4-d][1,2,5]oxadiazepine-10-carboxamide], under setting [1], the EC50 is 0.001 to 0.1 µM.

In the case of `COC(=O)NCC1Cn2nc3c(c2C(=O)N(C)O1)CN(C(=O)Nc1ccc(F)c(C#N)c1)[C@H](C)C3` (single isomer, unassigned) [Compound 180_D2, methyl (((4R*,9R)-10-((3-cyano-4-fluorophenyl)carbamoyl)-2,9-dimethyl-1-oxo-1,2,4,5,8,9,10,11-octahydropyrido[4′,3′:3,4]pyrazolo[5,1-d][1,2,5]oxadiazepin-4-yl)methyl)carbamate], under setting [2], the EC50 was 0.001 to 0.1 µM.

As for `C[C@@H]1Cc2nn3c(c2CN1C(=O)Nc1ccc(F)c(C#N)c1)C(=O)N(C)OC(C)(C)C3` [Compound 213, (R)—N-(3-cyano-4-fluorophenyl)-2,4,4,9-tetramethyl-1-oxo-1,4,5,8,9,11-hexahydropyrido[4′,3′:3,4]pyrazolo[5,1-d][1,2,5]oxadiazepine-10(2H)-carboxamide], the concentration for a half-maximal effect (EC50) under setting [1] was 0.001 to 0.1 µM.

With `CCOC(=O)OCC1Cn2nc3c(c2C(=O)N(C)O1)CN(C(=O)Nc1ccc(F)c(Cl)c1)CC3` (stereo not drawn) [Compound 056, (10-((3-chloro-4-fluorophenyl)carbamoyl)-2-methyl-1-oxo-1,2,4,5,8,9,10,11-octahydropyrido[4′,3′:3,4]pyrazolo[5,1-d][1,2,5]oxadiazepin-4-yl)methyl ethyl carbonate], the EC50 under setting [1] lay within 0.001 to 0.1 µM.

As to `CC(=O)NCC1Cn2nc3c(c2C(=O)N(C)O1)CN(C(=O)Nc1ccc(F)c(C(F)(F)F)c1F)CC3` (single isomer, unassigned) [Compound 172_E1, (S*)-4-(acetamidomethyl)-N-(2,4-difluoro-3-(trifluoromethyl)phenyl)-2-methyl-1-oxo-1,4,5,8,9,11-hexahydropyrido[4′,3′:3,4]pyrazolo[5,1-d][1,2,5]oxadiazepine-10(2H)-carboxamide], under setting [1], the EC50 lay within 0.001 to 0.1 µM.

The values above are taken from patent US10987359B2, “Oxadiazepinone derivatives and methods of treating hepatitis B infections” (priority 2016, dated 2021).
